Experimental data as given in ChEMBL document CHEMBL1144959, “Nonpeptide RGD antagonists: a novel class of mimetics, the 5,8-disubstituted 1-azabicyclo[5.2.0]nonan-2-one lactam” (Bioorg Med Chem Lett, 2003).

Biological target: Integrin alpha-5/beta-1 (Homo sapiens, UniProt P05556+P08648)
Experiment: Inhibition of fibronectin (GST-3Fn8-11) binding to recombinant soluble mini integrin alpha5-beta1
Format: protein-complex assay

Integrin alpha-5/beta-1, sequence (P05556 21-798 limits assumed): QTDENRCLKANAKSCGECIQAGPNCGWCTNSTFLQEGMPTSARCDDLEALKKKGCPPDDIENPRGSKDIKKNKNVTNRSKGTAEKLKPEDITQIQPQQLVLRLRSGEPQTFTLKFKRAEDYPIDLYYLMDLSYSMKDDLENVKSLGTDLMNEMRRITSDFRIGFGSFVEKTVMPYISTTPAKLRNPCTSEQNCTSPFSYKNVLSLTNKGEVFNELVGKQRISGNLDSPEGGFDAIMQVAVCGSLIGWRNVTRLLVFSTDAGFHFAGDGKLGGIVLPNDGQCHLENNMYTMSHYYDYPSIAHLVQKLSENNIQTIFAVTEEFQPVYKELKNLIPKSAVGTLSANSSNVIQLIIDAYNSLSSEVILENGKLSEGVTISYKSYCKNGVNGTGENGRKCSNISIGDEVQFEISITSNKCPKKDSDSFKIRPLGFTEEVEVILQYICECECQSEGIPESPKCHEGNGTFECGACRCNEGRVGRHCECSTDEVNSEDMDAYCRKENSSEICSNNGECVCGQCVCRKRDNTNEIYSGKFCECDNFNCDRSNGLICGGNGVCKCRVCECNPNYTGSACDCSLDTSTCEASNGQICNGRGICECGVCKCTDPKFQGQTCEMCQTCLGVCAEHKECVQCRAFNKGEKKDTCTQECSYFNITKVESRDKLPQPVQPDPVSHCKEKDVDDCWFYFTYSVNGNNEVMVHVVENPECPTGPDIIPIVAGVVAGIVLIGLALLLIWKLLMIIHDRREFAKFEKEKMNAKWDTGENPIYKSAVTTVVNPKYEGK
Integrin alpha-5/beta-1, sequence (P08648 42-894 limits assumed): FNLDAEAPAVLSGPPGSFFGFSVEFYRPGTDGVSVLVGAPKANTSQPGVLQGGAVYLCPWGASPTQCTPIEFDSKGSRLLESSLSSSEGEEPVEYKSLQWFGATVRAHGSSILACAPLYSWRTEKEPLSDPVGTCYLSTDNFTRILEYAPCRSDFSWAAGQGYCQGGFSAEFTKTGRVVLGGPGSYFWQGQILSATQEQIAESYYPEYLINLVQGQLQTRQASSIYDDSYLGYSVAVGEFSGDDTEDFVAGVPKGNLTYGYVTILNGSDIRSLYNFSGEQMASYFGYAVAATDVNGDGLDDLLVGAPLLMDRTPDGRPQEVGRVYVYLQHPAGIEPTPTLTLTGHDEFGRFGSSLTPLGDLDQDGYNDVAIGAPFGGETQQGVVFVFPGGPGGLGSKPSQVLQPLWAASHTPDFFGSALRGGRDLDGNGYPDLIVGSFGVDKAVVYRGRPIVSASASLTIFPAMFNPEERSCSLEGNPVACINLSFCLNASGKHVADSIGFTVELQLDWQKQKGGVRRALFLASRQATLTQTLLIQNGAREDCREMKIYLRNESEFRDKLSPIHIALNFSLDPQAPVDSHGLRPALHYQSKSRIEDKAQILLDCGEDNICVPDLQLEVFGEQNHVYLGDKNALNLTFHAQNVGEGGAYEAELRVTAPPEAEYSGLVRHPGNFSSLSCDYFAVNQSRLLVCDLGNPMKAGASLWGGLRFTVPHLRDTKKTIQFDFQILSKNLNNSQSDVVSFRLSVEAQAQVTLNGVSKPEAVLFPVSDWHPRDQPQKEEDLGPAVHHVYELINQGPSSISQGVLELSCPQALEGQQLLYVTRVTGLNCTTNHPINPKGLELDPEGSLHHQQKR
Integrin alpha-5/beta-1, sequence (P08648 895-1049 limits assumed): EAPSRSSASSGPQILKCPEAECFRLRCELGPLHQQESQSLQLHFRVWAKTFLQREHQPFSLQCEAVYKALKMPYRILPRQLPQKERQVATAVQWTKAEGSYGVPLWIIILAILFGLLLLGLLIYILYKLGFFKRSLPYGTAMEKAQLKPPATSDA

Structure (SMILES)	IC50 [µM]
NC(N)=NCCC[C@H](N)C(=O)NCC(=O)N[C@@H](CC(=O)O)C(=O)N[C@@H](CO)C(=O)O	2.2
N=C(N)NCCCNC(=O)[C@@H]1CCC(=O)N2C[C@H](CCC(=O)O)[C@H]2C1	3100
N=C(N)NCCCNC(=O)C1CCC(=O)N2CC(CCC(=O)O)C2C1 (centres undefined)	1300
N=C(N)NCCCNC(=O)[C@H]1CCC(=O)N2C[C@H](CCC(=O)O)[C@H]2C1	65
